Test results published in patent US9315522B2, “Antibacterial compounds” (JANSSEN SCIENCES IRELAND UC, priority 2012, dated 2016).
In brackets after ≈: the same amount, converted by molar mass. Several values for one entry are separate records, joined by “and”; a condition that tells them apart may be missing. Identical values can stand only once.

Tests used:
[1] = test system: Staphylococcus aureus ATCC 29213; test: Antibacterial susceptibility testing, IC90 determination (STA); assay type: cell-based; conditions: resazurin; for IC90: Staphylococcus aureus, ATCC29213, Staphylococcus aureus ATCC 29213, broth microdilution, read-out: STA (361.159) IC90
Protocol: (§1) The following bacteria were used: Staphylococcus aureus ATCC 29213, methicillin-resistant Staphylococcus aureus (MRSA) ATCC 700788 and Escherichia coli ATCC 35218. The bacteria used in this study were grown overnight in flasks containing 100 ml Mueller-Hinton broth (Difco cat. nr. 0757-17) in sterile de-ionized water, with shaking, at 37° C. Stocks were store at −70° C. until use.
(§2) Bacteria were incubated on a tryptic soy agar plate containing 5% sheep blood (Becton Dickinson cat. nr. 254053) for 18-24 hours at 35° C. in aerobic conditions (first passage). For the second passage, fresh Mueller-Hinton broth is inoculated with 5-10 colonies and grown overnight at 35° C. until turbidity (reaching log-phase) in aerobic conditions is reached. The bacterial suspension is then adjusted to 0.5 McFarland density and further diluted 1:100 in Mueller Hinton broth medium. This is used as inoculum.
The result(s) are depicted the table below (for STA ATCC 29213).
(§3) MIC assays were performed by the broth microdilution method in a 96-well format (flat-bottom microtitre plates) with a final volume of 0.1 ml Mueller Hinton broth containing two-fold serial dilutions of compounds and inoculated with 5×10^5 CFU/ml of bacteria (standard inoculum size according to CLSI guidelines). Inhibitors are typically varied over the range of 63 to 0.49 μM. The final DMSO concentration in the assay was 1.25% (maximum tolerable DMSO concentration=6%). In the assays where the effect of human serum on the activity of the compounds against S. aureus was tested, human serum was added at a final concentration of 10%. The plates were incubated at 35° C. for 16-20 hours. At the end of incubation the bacterial growth was quantified fluorometrically. For this, resazurin was added to all wells and the plates were re-incubated. The incubation time is dependent on the type of bacteria. A change in color from blue to pink indicated the growth of bacteria. The fluorescence was read in computer-controlled fluorometer (Fluoroskan Ascent FL, Labsystems) at an excitation wavelength 540 nm and an emission wavelength of 590 nm. The % growth inhibition achieved by the compounds was calculated according to standard methods. The IC90 (expressed in μg/ml) was defined as the 90% inhibitory concentration for bacterial growth. A panel of reference compounds were simultaneously tested for QC approval.

[2] = target: T1, S. aureus ATCC 29213 FabI (Staphylococcus aureus, UniProt Q6GI75); test: Staphylococcus aureus FabI enzyme inhibition assay; assay type: biochemical; conditions: read-out: FabI (300.235) IC50 (converted)
T1 sequence (Q6GI75 1-256): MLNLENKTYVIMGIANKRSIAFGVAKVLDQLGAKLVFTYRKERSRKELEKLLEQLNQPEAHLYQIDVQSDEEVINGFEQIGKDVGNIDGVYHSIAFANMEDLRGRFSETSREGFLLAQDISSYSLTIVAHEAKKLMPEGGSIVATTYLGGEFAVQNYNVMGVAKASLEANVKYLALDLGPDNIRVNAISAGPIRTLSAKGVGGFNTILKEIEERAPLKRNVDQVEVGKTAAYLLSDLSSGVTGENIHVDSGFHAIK
Protocol: Y.1 FabI Enzyme Inhibition: Staphylococcus aureus FabI Enzyme Inhibition Assay
FabI enzyme inhibition assays were carried out in half-area, 384-well microtitre plates. Compounds were evaluated in 40-μl assay mixtures containing 100 mM NaADA, pH 6.5 (ADA=N-[2-acetamido]-2iminodiacetic acid), 250 μM crotonoyl-CoA, 625 μM NADH and 50 μg/ml S. aureus ATCC 29213 FabI. Inhibitors were typically varied over the range of 50 to 0.39 μM. The reaction mixtures were incubated for 30 minutes at room temperature and the reaction was stopped by adding 200 mM Tris buffer (pH 9.0) to create a pH-shift. The consumption of NADH was monitored by measuring the change in absorbance at […]. By comparing sample readings to those of negative (absence of compound) and positive (absence of enzyme) controls, the percent inhibition of enzymatic activity of the compounds was determined A best-fit curve is fitted by a minimum of squares method. From this an IC50-value (expressed in μg/ml), resulting in 50% inhibition of enzymatic activity, was obtained.

[3] = test system: S. aureus; test: Antibacterial susceptibility testing, IC90 determination with 10% human serum (STA + 10% HS); assay type: cell-based, Staphylococcus aureus; conditions: Staphylococcus aureus, human serum at final concentration of 10%, read-out: STA + 10% HS (361.169) IC90
Protocol: as §1, §2, §3
The results are depicted in the table(s) below (STA+10% HS).

[4] = Cytotoxicity MTT assay (HELAM); assay type: cell-based, Human; conditions: human, HelaM cells, read-out: HELAM (222.125) CC50
Protocol: Cytotoxicity of the compounds was evaluated using the MTT assay. Human HelaM cells grown in 96-well plates were exposed to serial dilutions of the tested compounds (final volume of 0.2 ml) and incubated for 72 hours at 37° C. and 5% CO2. Inhibitors are typically varied over the range of 25 to 0.8 μM. The final DMSO concentration in the assay is 0.5%. MTT (3-(4,5-Dimethylthiazol-2-yl)-2,5-diphenyltetrazolium bromide, a tetrazole) was added and reduced to purple formazan only in living cells. Solubilization of the formazan crystals was achieved by adding 100 μl 2-propanol. Cell viability was determined by measuring the absorbance of the reduced formazan, giving a purple color, at 540 nm and 690 nm. The absorbance measured at 690 nm was automatically subtracted from the absorbance at 540 nm, to eliminate the effects of non-specific absorption. The percent cytotoxicity achieved by the compounds was calculated according to standard methods. Cytotoxicity is reported as CC50, the concentration that causes a 50% reduction in cell viability.
The results are depicted in the table(s) below (HELAM).

| IC90 [1] | melting point | IC50 [2] | IC90 [3] | STA (361.159) IC90 ([1]; Staphylococcus aureus ATCC 29213, broth microdilution) | Structure (SMILES) | CC50 at 72 h [4] |
| --- | --- | --- | --- | --- | --- | --- |
| 0.21 µg/mL (≈ 0.481 µM) | 238 °C | 1810 nM | 0.79 µg/mL | – | O=C(Nc1ccc(/C=C/C(=O)N2CC3C=C(c4ccccc4)CC3C2)cn1)c1cccnc1 (centres unmarked) [Cpd. No. 3] | 1.23 µg/mL (≈ 2.82 µM) |
| < 0.21 µg/mL | 236.37 °C and 236 °C | – | 0.28 µg/mL | – | O=C(Nc1ccc(/C=C/C(=O)N2CC3C=C(c4ccsc4)CC3C2)cn1)c1cccnc1 (centres unmarked) [compound 4] | 0.97 µg/mL (≈ 2.19 µM) |
| – | 242 to 267 °C | – | – | – | CCOC(=O)N1CCN2Cc3cc(/C=C/C(=O)N4CC5C=C(c6ccccc6)CC5C4)cnc3NC(=O)C2C1 (centres unmarked) [compound 88] | – |
| 0.16 µg/mL (≈ 0.407 µM) | > 250 °C | 839 nM | 0.37 µg/mL | – | O=C1Nc2ncc(/C=C/C(=O)N3CC4C=C(c5ccsc5)CC4C3)cc2CO1 (centres unmarked) [compound 35] | > 3.93 µg/mL |
| – | 242 °C | 1070 nM | < 0.22 µg/mL | 0.31 µg/mL | O=C1Nc2ncc(/C=C/C(=O)N3CC4C=C(c5ccccc5)CC4C3)cc2CN2CCOCC12 (centres unmarked) [compound 78] | > 11.5 µg/mL |
| 0.37 µg/mL (≈ 0.922 µM) | > 260 °C | 971 nM | 0.35 µg/mL | – | O=C1CNCc2cc(/C=C/C(=O)N3CC4C=C(c5ccncc5)CC4C3)cnc2N1 (centres unmarked) [compound 52] | > 10.1 µg/mL |
| 1.6 µg/mL (≈ 3.59 µM) | 216 °C and 216.42 °C | 2560 nM | 3.05 µg/mL | – | COC(=O)CCC(=O)Nc1ccc(/C=C/C(=O)N2CC3C=C(c4ccccc4)CC3C2)cn1 (centres unmarked) [compound 18] | > 11.2 µg/mL |
| < 0.21 µg/mL | 224.9 °C | 1420 nM | 0.36 µg/mL | – | CC(C)C1Oc2cc(/C=C/C(=O)N3CC4C=C(c5ccccc5)CC4C3)cnc2NC1=O (centres unmarked) [compound 63] | > 10.8 µg/mL |
| 0.25 µg/mL (≈ 0.612 µM) | 260.34 °C | ~930 nM | 0.24 µg/mL | – | O=C1COCc2cc(/C=C/C(=O)N3CC4C=C(c5nccs5)CC4C3)cnc2N1 (centres unmarked) [compound 49] | > 10.3 µg/mL |
| 0.76 µg/mL (≈ 1.75 µM) | 120 °C | 3560 nM | 5.36 µg/mL | – | O=C(Nc1ccc(/C=C/C(=O)N2CC3C=C(c4ccccc4)CC3C2)cn1)c1ccccc1 (centres unmarked) [compound 13] | > 10.9 µg/mL |
| 1.61 µg/mL (≈ 3.55 µM) | 184.41 °C | 4670 nM | 16.1 µg/mL | – | Cc1cc(C(=O)Nc2ccc(/C=C/C(=O)N3CC4C=C(c5ccccc5)CC4C3)cn2)c(C)o1 (centres unmarked) [compound 19] | 10.8 µg/mL (≈ 23.7 µM) |
| 0.86 µg/mL (≈ 1.91 µM) | 239.7 °C | 1730 nM | 2.65 µg/mL | – | O=C(Cc1ccncc1)Nc1ccc(/C=C/C(=O)N2CC3C=C(c4ccccc4)CC3C2)cn1 (centres unmarked) [compound 14] | > 11.3 µg/mL |
| 0.5 µg/mL (≈ 1.15 µM) | 184 °C | 2040 nM | 1.58 µg/mL | – | O=C(Nc1ccc(/C=C/C(=O)N2CC3C=C(c4ccccc4)CC3C2)cn1)c1ccncc1 (centres unmarked) [compound 12] | > 11 µg/mL |
| < 0.22 µg/mL | 230.99 °C and 231 °C | – | < 0.22 µg/mL | – | Cc1cncc(C(=O)Nc2ccc(/C=C/C(=O)N3CC4C=C(c5nccs5)CC4C3)cn2)c1 (centres unmarked) [compound 6] | > 11.5 µg/mL |
| 0.316 µg/mL (≈ 0.7 µM) | 202.82 °C | 1240 nM | 0.398 µg/mL | – | Cc1cncc(C(=O)Nc2ccc(/C=C/C(=O)N3CC4C=C(c5ccncc5)CC4C3)cn2)c1 (centres unmarked) [compound 8] | > 11.3 µg/mL |
| 0.37 µg/mL (≈ 0.922 µM) | 272.58 °C | 1470 nM | 0.7 µg/mL | – | O=C1COCc2cc(/C=C/C(=O)N3C[C@H]4CC(c5ccccc5)=C[C@H]4C3)cnc2N1 (single isomer, unassigned) [compound 53] | > 10.1 µg/mL |
| 0.47 µg/mL (≈ 1.07 µM) | 140 °C | 3230 nM | 3.33 µg/mL | – | Cc1occc1C(=O)Nc1ccc(/C=C/C(=O)N2CC3C=C(c4ccccc4)CC3C2)cn1 (centres unmarked) [compound 11] | 5.16 µg/mL (≈ 11.7 µM) |
| – | > 250 °C | – | – | – | O=C1Nc2ncc(/C=C/C(=O)N3C[C@@H]4CN(c5ccccc5)C[C@@H]4C3)cc2CN2CCOCC12 (some centres unmarked) [compound 87] | – |
| 0.17 µg/mL (≈ 0.377 µM) | 214 °C | 1820 nM | 0.67 µg/mL | – | Cc1cncc(C(=O)Nc2ccc(/C=C/C(=O)N3CC4C=C(c5ccccc5)CC4C3)cn2)c1 (centres unmarked) [compound 1] | > 4.5 µg/mL |
| 1.67 µg/mL (≈ 3.63 µM) | 226 °C | 955 nM | 1.62 µg/mL | – | Cn1nccc1C1=CC2CN(C(=O)/C=C/c3cnc4c(c3)CN3CCOCC3C(=O)N4)CC2C1 (centres unmarked) [compound 85] | > 11.6 µg/mL |
| < 0.19 µg/mL | 266.57 °C and 266.6 °C | ~1620 nM | 0.35 µg/mL | – | O=C1COCc2cc(/C=C/C(=O)N3CC4C=C(c5ccccc5)CC4C3)cnc2N1 (centres unmarked) [compound 39] | > 10.1 µg/mL |
| < 0.23 µg/mL | 142 °C | 1390 nM | < 0.23 µg/mL | – | COc1cncc(C(=O)Nc2ccc(/C=C/C(=O)N3CC4C=C(c5ccncc5)CC4C3)cn2)c1 (centres unmarked) [compound 30] | > 11.7 µg/mL |
| – | 220 to 270 °C | – | – | – | O=C1Nc2ncc(/C=C/C(=O)N3CC4C=C(c5ccccc5)CC4C3)cc2Cn2cncc21 (centres unmarked) [Compound K11] | – |
| 0.45 µg/mL (≈ 0.958 µM) | 230 to 232 °C | – | 0.43 µg/mL | – | O=C1Nc2ncc(/C=C/C(=O)N3CC4C=C(c5ccccc5)CC4C3)cc2C(=O)N2CCNCC12 (centres unmarked) [compound 81] | – |
| > 28.4 µg/mL | – | 14400 nM | > 28.4 µg/mL | – | Cc1nc(NC(=O)c2cccnc2)ccc1/C=C/C(=O)N1CC2C=C(c3ccccc3)CC2C1 (centres unmarked) [compound 25] | > 11.3 µg/mL |
| > 33 µg/mL | – | 9320 nM | > 33 µg/mL | – | O=C(Nc1ccc(/C=C/C(=O)N2CC3C=C(c4ccccc4)CC3C2)cn1)c1cc(F)c(Cl)nc1Cl (centres unmarked) [compound 29] | 2.34 µg/mL (≈ 4.47 µM) |
| > 24.1 µg/mL | – | > 50100 nM | > 24.1 µg/mL | – | C=CCN1C[C@@H]2CN(C(=O)/C=C/c3cnc4c(c3)CN(C)CC(=O)N4)C[C@@H]2C1 [compound 61] | > 9.58 µg/mL |
